From US20120214847A1, “2-[1-PHENYL-5-HYDROXY-4a-SUBSTITUTED-HEXAHYDROCYCLOPENTA[F]INDAZOL-5-YL]ETHYL PHENYL DERIVATIVES AS GLUCOCORTICOID RECEPTOR LIGANDS” (Merck Sharp & Dohme Corp., priority 2009, published 2012) come the findings set out here.

As usually defined, the EC50 is the concentration giving half of the maximal effect. Lower therefore signals greater potency. One may read the Emax as the size of the effect at its maximum, as opposed to the concentration needed.

In the assay the target is T1, human GR (Homo sapiens, UniProt P04150).
T1 construct: naturally expresses the human GR; endogenous in cells
T1 sequence (P04150 1-777): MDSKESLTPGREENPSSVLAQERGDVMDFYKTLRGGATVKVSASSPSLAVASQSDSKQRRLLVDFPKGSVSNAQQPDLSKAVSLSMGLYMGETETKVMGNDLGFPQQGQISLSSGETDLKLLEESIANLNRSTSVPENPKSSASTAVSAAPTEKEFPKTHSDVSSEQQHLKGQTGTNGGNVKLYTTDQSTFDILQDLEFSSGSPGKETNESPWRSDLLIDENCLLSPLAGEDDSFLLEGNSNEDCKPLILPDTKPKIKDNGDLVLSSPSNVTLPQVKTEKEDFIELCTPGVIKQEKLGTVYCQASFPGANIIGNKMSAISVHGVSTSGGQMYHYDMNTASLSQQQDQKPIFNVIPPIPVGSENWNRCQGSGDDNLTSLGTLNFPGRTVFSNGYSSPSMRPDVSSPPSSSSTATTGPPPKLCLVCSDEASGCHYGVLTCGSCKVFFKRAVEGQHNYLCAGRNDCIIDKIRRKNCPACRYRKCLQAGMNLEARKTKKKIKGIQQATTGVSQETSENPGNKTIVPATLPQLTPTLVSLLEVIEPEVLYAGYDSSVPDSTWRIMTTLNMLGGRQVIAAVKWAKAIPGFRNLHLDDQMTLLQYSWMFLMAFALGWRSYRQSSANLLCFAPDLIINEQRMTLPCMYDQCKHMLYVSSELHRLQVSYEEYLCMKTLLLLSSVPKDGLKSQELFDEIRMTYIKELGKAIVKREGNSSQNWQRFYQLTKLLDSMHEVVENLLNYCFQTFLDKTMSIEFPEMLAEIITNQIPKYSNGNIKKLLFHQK
Nature of the assay: Transrepression assay (GITAR), TNFα-β-lactamase reporter in U937 cells. Type of assay: cell-based. As to conditions: for EC50: U937 cells, IP = inflection point; for Emax: U-937, U937 cells, activity repressed by 100 nM dexamethasone alone set as 100%. The essentials:
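U937 cells stably carrying TNFα promoter–β-lactamase, endogenous GR, preincubated with compound 30–45 min at 37° C., then stimulated with 5 ng/ml PMA plus 100 ng/ml LPS for ~18 h. CCF2-AM read-out; repression by 100 nM dexamethasone set as 100%.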

The compound `NC(=O)c1cc(F)ccc1CC[C@]1(O)CCC2=Cc3c(cnn3-c3ccc(F)cc3)C[C@@]21C1CC1` [Example 39, 2-{2-[(4aR,5R)-4a-Cyclopropyl-1-(4-fluorophenyl)-5-hydroxy-1,4,4a,5,6,7-hexahydrocyclopenta[f]indazol-5-yl]ethyl}-5-fluorobenzamide] displayed an EC50 of 0.083 µM and an Emax of 71%.
For `CC[C@]12Cc3cnn(-c4ccc(F)cc4)c3C=C1CC[C@@]2(O)CC(O)c1ncccc1Cl` (stereo partly drawn) [Example 70, (4aS,5R)-5-[2-(3-Chloropyridin-2-yl)-2-hydroxyethyl]-4a-ethyl-1-(4-fluorophenyl)-1,4,4a,5,6,7-hexahydrocyclopenta[f]indazol-5-ol], in that order: 0.142 µM and 79%.
For `CC[C@]12Cc3cnn(-c4cccc(F)c4)c3C=C1CC[C@@]2(O)CCc1cccc(F)c1C(N)=O` [Example 12, 2-{2-[(4aS,5R)-4a-Ethyl-1-(3-fluorophenyl)-5-hydroxy-1,4,4a,5,6,7-hexahydrocyclopenta[f]indazol-5-yl]ethyl}-6-fluorobenzamide], in that order: 0.025 µM and 87%.
`NC(=O)Cc1c(F)cccc1CC[C@]1(O)CCC2=Cc3c(cnn3-c3ccc(F)cc3)C[C@@]21C1CC1` [Example 61, 2-(2-{2-[(4aR,5R)-4a-Cyclopropyl-1-(4-fluorophenyl)-5-hydroxy-1,4,4a,5,6,7-hexahydrocyclopenta[f]indazol-5-yl]ethyl}-6-fluorophenyl)acetamide] showed an EC50 of 0.016 µM and an Emax of 72%.
For `CC[C@]12Cc3cnn(-c4cccnc4)c3C=C1CC[C@@]2(O)CCc1ccccc1C#N` [Example 5, 2-{2-[(4aS,5R)-4a-Ethyl-5-hydroxy-1-(pyridin-3-yl)-1,4,4a,5,6,7-hexahydrocyclopenta[f]indazol-5-yl]ethyl}benzonitrile], in that order: 0.031 µM and 80%.
For `NC(=O)Cc1ccccc1CC[C@]1(O)CCC2=Cc3c(cnn3-c3ccc(F)cc3)C[C@@]21C1CC1` [Example 56, 2-(2-{2-[(4aR,5S)-4a-Cyclopropyl-1-(4-fluorophenyl)-5-hydroxy-1,4,4a,5,6,7-hexahydrocyclopenta[f]indazol-5-yl]ethyl}phenyl)acetamide], in that order: 0.095 µM and 78%.
Consider `CC[C@]12Cc3cnn(-c4ccc(F)cc4)c3C=C1CC[C@@]2(O)CCc1ccccc1S(C)(=O)=O` [Example 42, (4aS,5R)-4a-Ethyl-1-(4-fluorophenyl)-5-{2-[2-(methylsulfonyl)phenyl]ethyl}-1,4,4a,5,6,7-hexahydrocyclopenta[f]indazol-5-ol], for which the EC50 turned out to be 0.011 µM and the Emax is 89%.
For `CC[C@]12Cc3cnn(-c4ccc(F)cc4)c3C=C1CC[C@@]2(O)CCc1ccc(F)cc1C(N)=O` [Example 8, 2-{2-[(4aS,5R)-4a-Ethyl-1-(4-fluorophenyl)-5-hydroxy-1,4,4a,5,6,7-hexahydrocyclopenta[f]indazol-5-yl]ethyl}-5-fluorobenzamide], in that order: 0.09 µM and 88%.
Compound `NC(=O)CNC(=O)c1ccccc1CC[C@]1(O)CCC2=Cc3c(cnn3-c3ccc(F)cc3)C[C@@]21C1CC1` [Example 47, N-(2-Amino-2-oxoethyl)-2-{2-[(4aR,5R)-4a-cyclopropyl-1-(4-fluorophenyl)-5-hydroxy-1,4,4a,5,6,7-hexahydrocyclopenta[f]indazol-5-yl]ethyl}benzamide] showed an EC50 of 0.009 µM and an Emax of 83%.
For `CC[C@]12Cc3cnn(-c4ccc(F)cc4)c3C=C1CC[C@@]2(O)CCc1ccccc1C(O)C(N)=O` (stereo partly drawn) [Example 25, 2-(2-{2-[(4aS,5R)-4a-Ethyl-1-(4-fluorophenyl)-5-hydroxy-1,4,4a,5,6,7-hexahydrocyclopenta[f]indazol-5-yl]ethyl}phenyl)-2-hydroxyacetamide], in that order: 0.118 µM and 74%.
Regarding `NC(=O)[C@H](F)c1c(F)cccc1CC[C@]1(O)CCC2=Cc3c(cnn3-c3ccc(F)cc3)C[C@@]21C1CC1` [Example 57, (2R)-2-(2-{2-[(4aR,5R)-4a-Cyclopropyl-1-(4-fluorophenyl)-5-hydroxy-1,4,4a,5,6,7-hexahydrocyclopenta[f]indazol-5-yl]ethyl}-6-fluorophenyl)-2-fluoroethanamide], it took 0.106 µM to reach a half-maximal effect (EC50) and the maximal effect (Emax) worked out at 86%.
For `CC[C@]12Cc3cnn(-c4ccc(F)cc4)c3C=C1CC[C@@]2(O)CCc1cc(C(F)(F)F)ccn1` [Example 34, (4aS,5R)-4a-Ethyl-1-(4-fluorophenyl)-5-{2-[4-(trifluoromethyl)pyridin-2-yl]ethyl}-1,4,4a,5,6,7-hexahydrocyclopenta[f]indazol-5-ol], in that order: 0.125 µM and 85%.
Compound `NC(=O)c1c(C(F)(F)F)ccnc1CC[C@]1(O)CCC2=Cc3c(cnn3-c3ccc(F)cc3)C[C@@]21C1CC1` [Example 55, 2-{2-[(4aR,5R)-4a-Cyclopropyl-1-(4-fluorophenyl)-5-hydroxy-1,4,4a,5,6,7-hexahydrocyclopenta[f]indaozol-5-yl]ethyl}-4-(trifluoromethyl)pyridine-3-carboxamide] registered an EC50 of 0.002 µM and an Emax of 87%.
`CC[C@]12Cc3cnn(-c4ccc(F)cc4)c3C=C1CC[C@@]2(O)CCc1ncccc1C(N)=O` [Example 52, 2-{2-[(4aS,5R)-4a-Ethyl-1-(4-fluorophenyl)-5-hydroxy-1,4,4a,5,6,7-hexahydrocyclopenta[f]indazol-5-yl]ethyl}pyridine-3-carboxamide] displayed an EC50 of 0.053 µM and an Emax of 85%.
For `CC[C@]12Cc3cnn(-c4ccc(F)cc4)c3C=C1CC[C@@]2(O)CCc1nccc(OC)c1CC(N)=O` [Example 64, 2-(2-{2-[(4aS,5R)-4a-Ethyl-1-(4-fluorophenyl)-5-hydroxy-1,4,4a,5,6,7-hexahydrocyclopenta[f]indazol-5-yl]ethyl}-4-methoxypyridin-3-yl)acetamide], in that order: 0.072 µM and 77%.
For `CC[C@]12Cc3cnn(-c4ccc(F)cc4)c3C=C1CC[C@@]2(O)CCc1ccccc1S(=O)(=O)C(C)C` [Example 40, (4aS,5R)-4a-Ethyl-1-(4-fluorophenyl)-5-{2-[2-(propan-2-ylsulfonyl)phenyl]ethyl}-1,4,4a,5,6,7-hexahydrocyclopenta[f]indazol-5-ol], in that order: 0.038 µM and 83%.
For `Cc1ccnc(CC[C@]2(O)CCC3=Cc4c(cnn4-c4ccc(F)cc4)C[C@@]32C2CC2)c1` [Example 36, (4aR,5R)-4a-Cyclopropyl-1-(4-fluorophenyl)-5-[2-(4-methylpyridin-2-yl)ethyl]-1,4,4a,5,6,7-hexahydrocyclopenta[f]indazol-5-ol], in that order: 0.114 µM and 72%.
As to `CC[C@]12Cc3cnn(-c4ccc(F)cc4)c3C=C1CC[C@@]2(O)CCc1cccc(OC)c1C(N)=O` [Example 37, 2-{2-[(4aS,5R)-4a-Ethyl-1-(4-fluorophenyl)-5-hydroxy-1,4,4a,5,6,7-hexahydrocyclopenta[f]indazol-5-yl]ethyl}-6-methoxybenzamide], the EC50 was 0.008 µM and the Emax was 90%.
`NC(=O)c1cc(F)cnc1CC[C@]1(O)CCC2=Cc3c(cnn3-c3ccc(F)cc3)C[C@@]21C1CC1` [Example 4, 2-{2-[(4aR,5R)-4a-Cyclopropyl-1-(4-fluorophenyl)-5-hydroxy-1,4,4a,5,6,7-hexahydrocyclopenta[f]indazol-5-yl]ethyl}-5-fluoropyridine-3-carboxamide] showed an EC50 of 0.083 µM and an Emax of 71%.
Consider `NS(=O)(=O)c1ccccc1CC[C@]1(O)CCC2=Cc3c(cnn3-c3cccnc3)C[C@@]21C1CC1` [Example 24, 2-{2-[(4aR,5R)-4a-Cyclopropyl-5-hydroxy-1-(pyridin-3-yl)-1,4,4a,5,6,7-hexahydrocyclopenta[f]indazol-5-yl]ethyl}benzenesulfonamide], for which the EC50 worked out at 0.007 µM and the Emax was 83%.
For `CC[C@]12Cc3cnn(-c4cccnc4)c3C=C1CC[C@@]2(O)CCc1cccc(F)c1C(N)=O` [Example 14, 2-{2-[(4aS,5R)-4a-Ethyl-5-hydroxy-1-(pyridin-3-yl)-1,4,4a,5,6,7-hexahydrocyclopenta[f]indazol-5-yl]ethyl}-6-fluorobenzamide], in that order: 0.043 µM and 88%.
For `COc1ccnc(CC[C@]2(O)CCC3=Cc4c(cnn4-c4ccc(F)cc4)C[C@@]32C2CC2)c1C(N)=O` [Example 54, 2-{2-[(4aR,5R)-4a-Cyclopropyl-1-(4-fluorophenyl)-5-hydroxy-1,4,4a,5,6,7-hexahydrocyclopenta[f]indazol-5-yl]ethyl}-4-methoxypyridine-3-carboxamide], in that order: 0.048 µM and 77%.
